Patent US20210395235A1, “COMPOUND AS TGF-beta R1 INHIBITOR AND APPLICATION THEREOF” (NANJING SANHOME PHARMACEUTICAL CO., LTD., priority 2018, published 2021)

Tests used:
[1] = tested on: TGFβ-ALK5-SMAD2/3 signaling pathway in Luc-Smad2/3-NIH3T3 cells; assay: In vitro cell luciferase assay in Luc-Smad2/3-NIH3T3 cells stimulated with TGFβ1; format: cell-based; conditions: Mus musculus; TGFβ1 4 ng/mL, 2% FBS medium, luciferase chemiluminescence
Protocol: Test compounds: For the compounds of the present disclosure prepared in the above examples, each compound was prepared into 4 mM using DMSO. Then, a 4-fold serial dilution was made to obtain 20000.00 nM, 5000.00 nM, 1250.00 nM, 312.5 nM, 78.125 nM, 19.53 nM, 4.88 nM and 1.22 nM successively.
Luc-Smad2/3-NIH3T3 mouse fibroblasts (engineered to overexpress SMAD2,3-responsive promoter) were provided by a laboratory of China Pharmaceutical University.
Reagents: DMEM, purchased from Invitrogen, US; FBS, purchased from Invitrogen, US; DMSO, purchased from Sigma, US; Glo Lysis Buffer, purchased from Progema, US; Bright-Glo Luciferase assay system, purchased from Promega, US; and TGFβ, purchased from PeproTech, US.
Instruments: MD SpectraMaX M3 multifunctional enzyme reader, purchased from Molecular Devices, US.
Cell recovery: The cells were dissolved by placing in a […] water bath, then transferred to a 15 mL of pre-warmed culture medium, and centrifuged at 1000 rpm for 5 minutes. After the culture medium was discarded, the cells were resuspend in 15 mL of fresh culture medium, transferred to a 10 cm dish, and placed in an incubator at 37° C. with 5% CO2 for culture. After 24 hours, the culture medium for the cells was changed with a fresh culture medium.
Cell passage: The recovered cells were transferred to a 50 mL sterile centrifuge tube and centrifuged at 1000 rpm for 5 minutes. The culture medium was discarded. The evenly dispersed cells was counted, and adjusted to an appropriate cell concentration of 15 mL of fresh culture medium, added to a 10 cm dish, and placed in an incubator at 37° C. with 5% CO2 for culture.
Luc-Smad2/3-NIH3T3 cells were cultured normally in a 10 cm culture dish until the confluence reached 80%-90%. After digestion, they were collected in a 15 mL centrifuge tube, centrifuged at 1000×g for 5 minutes to remove the supernatant, and resuspended with 1 mL of medium, then diluted 10 times and counted. The cells was diluted according to the results from the count, and transferred into a 96-well plate at 4×10^3/cells per well (100 μl of resuspended cells was added in each well).
1-2 mg of the drug was weighed (weighed in advance), and prepared into a 4 mM stock solution using DMSO. After 24 hours, the culture medium was removed. The drug was diluted with 2% FBS culture medium. 100 μl of the 1× drug solution was added to make the final concentration of the drug to be 20000.00 nM, 5000.00 nM, 1250.00 nM, 312.5 nM, 78.125 nM, 19.53 nM, 4.88 nM, and 1.22 nM. TGFβ1 was present in each well at a final concentration of 4 ng/mL, and diluted with 2% FBS culture medium together with the compounds.
The Glo Lysis Buffer and the Bright-glo luciferase assay system as well as the cells were equilibrated to room temperature. After the cell supernatant was removed, the cells were dissolved evenly by adding 100 μl of the Glo Lysis Buffer to each well with shaking slowly, and lysed at room temperature for 5 minutes. After that, to each well, 100 μl of the Bright-glo luciferase assay system was added to incubate the cells for 5 minute at room temperature with shaking for 2 minutes. Then, 180 μl of the supernatant was transferred to a white bottom 96-well plate to detect chemiluminescence signal. The detection condition was 1 s.
2.3 Data processing: Graphpad Prism 5 software was used to perform nonlinear curve fitting and data analysis to obtain IC50 by fitting.

ALK5 = molecular target: T1, ALK5 (Homo sapiens, UniProt P36897); assay: In vitro activity against ALK5 kinase (ADP-Glo Kinase Assay); format: biochemical; conditions: 28° C. 120 minutes
T1 construct: purchased Carna 09-141
T1 sequence (P36897 162-503 limits assumed): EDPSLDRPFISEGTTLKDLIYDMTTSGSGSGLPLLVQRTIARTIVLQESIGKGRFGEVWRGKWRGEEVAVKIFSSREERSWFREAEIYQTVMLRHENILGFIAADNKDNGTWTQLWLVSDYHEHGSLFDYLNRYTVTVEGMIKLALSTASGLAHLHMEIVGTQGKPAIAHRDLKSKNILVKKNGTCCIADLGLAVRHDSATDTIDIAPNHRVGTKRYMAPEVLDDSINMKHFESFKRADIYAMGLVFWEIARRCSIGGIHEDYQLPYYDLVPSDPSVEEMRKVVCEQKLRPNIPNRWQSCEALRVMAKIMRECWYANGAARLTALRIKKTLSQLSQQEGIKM
Protocol: For the compounds of the present disclosure prepared in the above examples, each compound was prepared into 10 mM with DMSO, and then diluted to 3.333 μM, 1.111 μM, 370 nM, 123 nM, 41 nM, 14 nM, 4.6 nM, 1.5 nM and 0.5 nM successively.
Reagents: ALK5, Cat. No. 09-141, purchased from Carna; p38α, Cat. No. 04-152, purchased from the Carna; TGFβR1 peptides, Cat. No. T36-58, purchased from SignalChem; dimethyl sulfoxide (DMSO), purchased from Sigma, US; EDTA, purchased from Sigma, US; and ADP-Glo Kinase Assay, Cat. No. v9102/3, 1×Kinase buffer (40 mM Tris, pH7.5, 0.10% BSA, 20 mM MgCl2, 1 mM DTT), purchased from Promega, and prepared immediately before use.
2.2.1.1 Preparation of 50-fold compounds: The compounds were prepared into 500 μM, 50-fold concentration as the final concentration 10 μM for detecting the compounds, which was performed as following: into a second well of a 96-well plate, 95 μl of 100% DMSO was added, and then 5 μl of the 10 mM compound solution was added, to prepare a […] compound solution; into other wells, 60 μl of 100% DMSO was added; from the second well, 30 μl of the compound was drawn out and added into a third well; such 3-fold serial dilution was continued successively until 10 dilutions of concentration were made.
The kinase was added to a 1× kinase buffer, to form a 2× enzyme solution. 2.5 μl of the 2× enzyme solution was added to a 384-well reaction plate which already contained 100 nl of 100% DMSO-dissolved compound, to incubate at room temperature for 10 minutes.
FAM labeled peptides and ATP were added to the 1× kinase buffer, to form a 2× substrate solution. 2.5 μl of the 2× substrate solution was added to the 384-well reaction plate.
The 384-well plate was incubated at 28° C. for 120 minutes.
2.5.1 An ADP-Glo reagent was equilibrated to room temperature.
2.5.2 5 μl of the reaction solution was transferred into a reaction well at another new 384-well plate.
2.5.3 5 μl of the ADP-Glo reagent was transferred into the reaction well at the 384-well plate to stop the reaction.
2.5.4 An incubation was performed at 28° C. for 120 minutes.
2.5.5 10 μl of a kinase detection reagent was transferred into each reaction well, shaken for 1 minute, and was allowed to stand for 30 minutes at room temperature.
The luminescence value of the sample was read from Envision.
2.7.1 Luminescence reading data were copied from the Envision program.
2.7.2 The values of the luminescence reading were converted into the percent inhibition by the following formula.
Percent inhibition=(max−sample RLU)/(max−min)×100, where “min” stands for the fluorescence reading of the control sample with no enzyme added to the reaction; and “max” stands for the fluorescence reading of the sample with DMSO added as a control.
2.7.3 The date were imported into MS Excel and subjected to curve fitting using XLFit excel add-in version 5.4.0.8 and a fitting formula: Y=Bottom+(Top−Bottom)/(1+(IC50/X)^HillSlope).

[2] = animal models; cited from earlier work

SMILES	IC50 (ALK5)	IC50 [1]	cardiotoxicity (such as bleeding, functional deterioration, and inflammatory injury) [2]
FC(F)(F)Cn1cc2c(n1)CN(c1ccc3c(Oc4cn(C5CC5)nc4C4CCOCC4)ccnc3c1)C2 [Example 6, 4-((1-cyclopropyl-3-(tetrahydro-2H-pyran-4-yl)-1H-pyrazol-4-yl)oxy)-7-(2-(2,2,2-trifluoroethyl)-2,6-dihydropyrrolo[3,4-c]pyrazole-5(4H)-yl)quinoline]	66 nM	165 nM	–
CC(C)(O)c1cc(-c2ccc3c(Oc4cn(C5CC5)nc4C4CCOCC4)ccnc3c2)ccn1 [Example 16, 2-(4-(4-((1-cyclopropyl-3-(tetrahydro-2H-pyran-4-yl)-1H-pyrazol-4-yl)oxy)quinolin-7-yl)pyridin-2-yl)propan-2-ol]	100 nM	200 nM	–
COc1cc2nccc(Oc3cn(C4CC4)nc3C3CCOCC3)c2cc1C(N)=O [Example 17, 4-((1-cyclopropyl-3-(tetrahydro-2H-pyran-4-yl)-1H-pyrazol-4-yl)oxy)-7-methoxyquinoline-6-carboxamide]	66 nM	131 nM	–
COc1cc2nccc(Oc3cn(C4CC4)nc3C3CCOCC3)c2cc1Nc1cnn(C2COC2)c1 [Example 19, 4-((1-cyclopropyl-3-(tetrahydro-2H-pyran-4-yl)-1H-pyrazol-4-yl)oxa)-7-methoxy-N-(1-(oxetan-3-yl)-1H-pyrazol-4-yl)quinoline-6-amine]	10 nM	203 nM	–
Cc1cccc(-c2nn3c(c2-c2ccnc4ccc(C(N)=O)cc24)CCC3)n1 [Galunisertib]	–	–	certain cardiotoxicity

Further lines, with some results ahead:

IC50 (ALK5)	SMILES	IC50 [1]	cardiotoxicity (such as bleeding, functional deterioration, and inflammatory injury) [2]
5.2 nM	Cn1cc(-c2ccc3c(Oc4cn(C5CC5)nc4C4CCOCC4)ccnc3c2)cn1 [Example 7, 4-((1-cyclopropyl-3-(tetrahydro-2H-pyran-4-yl)-1H-pyrazol-4-yl)oxy)-7-(1-methyl-1H-pyrazol-4-yl)quinoline]	81 nM	–
3.2 nM	CS(=O)(=O)c1ccc(-c2ccc3c(Oc4cn(C5CC5)nc4C4CCOCC4)ccnc3c2)cc1 [Example 15, 4-((1-cyclopropyl-3-(tetrahydro-2H-pyran-4-yl)-1H-pyrazol-4-yl)oxy)-7-(4-(methylsulfonyl)phenyl) quinoline]	80 nM	–
6 nM	COc1cc2nccc(Oc3cn(C4CC4)nc3C3CCOCC3)c2cc1Nc1cnn(C)c1 [Example 18, 4-((1-cyclopropyl-3-(tetrahydro-2H-pyran-4-yl)-1H-pyrazol-4-yl)oxy)-7-methoxy-N-(1-methyl-1H-pyrazol-4-yl)quinoline-6-amine]	87 nM	–
